# In ChEMBL document CHEMBL5729675, “Sulfonamide compound or salt thereof” (2023):
# Biological target: Ribonucleotide reductase (Homo sapiens, UniProt P23921+Q7LG56)
# Assay: Human RNR Inhibition Effect: The inhibitory activity against the ribonucleotide reduction reaction (hereinafter referred to as RNR reaction) of the test compound was determined by measuring the formation of deoxycytidine diphosphate (hereinafter referred to as dCDP) from cytidine diphosphate (hereinafter referred to as CDP) by the following method.Human M1 subunit and human M2 subunit (mutant …
# Chain of Ribonucleotide reductase (P23921 whole entry, looked up): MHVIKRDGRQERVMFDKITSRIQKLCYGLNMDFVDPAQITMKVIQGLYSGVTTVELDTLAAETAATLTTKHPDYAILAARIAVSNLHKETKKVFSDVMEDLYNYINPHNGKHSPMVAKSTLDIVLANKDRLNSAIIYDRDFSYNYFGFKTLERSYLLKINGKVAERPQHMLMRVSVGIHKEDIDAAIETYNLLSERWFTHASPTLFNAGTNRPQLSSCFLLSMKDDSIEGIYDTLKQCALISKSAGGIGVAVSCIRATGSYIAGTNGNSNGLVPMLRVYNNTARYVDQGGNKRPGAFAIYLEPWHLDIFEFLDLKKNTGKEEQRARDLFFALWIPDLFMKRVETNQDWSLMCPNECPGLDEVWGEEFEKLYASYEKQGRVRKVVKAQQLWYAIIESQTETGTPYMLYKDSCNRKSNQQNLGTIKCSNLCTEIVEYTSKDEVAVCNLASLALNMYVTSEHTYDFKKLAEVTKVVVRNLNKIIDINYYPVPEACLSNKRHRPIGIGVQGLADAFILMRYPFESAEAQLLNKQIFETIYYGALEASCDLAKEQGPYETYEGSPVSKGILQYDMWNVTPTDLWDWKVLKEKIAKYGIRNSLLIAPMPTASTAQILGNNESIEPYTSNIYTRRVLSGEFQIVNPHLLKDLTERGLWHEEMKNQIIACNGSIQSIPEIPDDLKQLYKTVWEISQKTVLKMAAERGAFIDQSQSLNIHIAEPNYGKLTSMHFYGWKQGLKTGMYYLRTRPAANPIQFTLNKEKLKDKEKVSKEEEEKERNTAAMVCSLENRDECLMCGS
# Chain of Ribonucleotide reductase (Q7LG56 whole entry, looked up): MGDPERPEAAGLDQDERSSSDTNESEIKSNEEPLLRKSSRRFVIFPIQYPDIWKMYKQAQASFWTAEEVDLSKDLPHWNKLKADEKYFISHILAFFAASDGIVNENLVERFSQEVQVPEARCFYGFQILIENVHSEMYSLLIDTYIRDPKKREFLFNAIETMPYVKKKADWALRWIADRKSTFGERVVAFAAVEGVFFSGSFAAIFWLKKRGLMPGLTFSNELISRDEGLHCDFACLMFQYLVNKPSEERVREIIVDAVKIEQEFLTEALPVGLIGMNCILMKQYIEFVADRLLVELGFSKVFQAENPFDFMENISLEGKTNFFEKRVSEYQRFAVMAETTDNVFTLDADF
row,IC50 [nM],Compound
1,360,Cc1ccc(F)c([C@@H](C)[C@H](NS(=O)(=O)c2ccc3c(c2)C(C)(O)CCC3)c2n[nH]c(=O)o2)c1C (some centres undefined)
2,400,CC(O)c1nc(S(=O)(=O)N[C@H](c2n[nH]c(=O)o2)[C@H](C)c2cccc3c2CCC3)ccc1Cl (some centres undefined)
3,320,Cc1ccc(F)c([C@@H](C)[C@H](NS(=O)(=O)c2ccc3c(c2)CCCO3)c2n[nH]c(=O)o2)c1C
4,990,Cc1ccc(F)c([C@@H](C)[C@H](NS(=O)(=O)c2ncc(Br)cc2C(=O)O)c2n[nH]c(=O)o2)c1C
5,230,Cc1cccc2cccc([C@@H](C)[C@H](NS(=O)(=O)c3ccc(Cl)c4c3OCCC4O)c3n[nH]c(=O)o3)c12 (some centres undefined)
6,90,Cc1ccc(F)c([C@@H](C)[C@H](NS(=O)(=O)c2ccc(Cl)c(C(C)(C)O)n2)c2n[nH]c(=O)o2)c1C
7,410,Cc1ccc(F)c([C@@H](C)[C@H](NS(=O)(=O)c2ccc3[nH]ncc3c2)c2n[nH]c(=O)o2)c1C
8,190,Cc1ccc(F)c([C@@H](C)[C@H](NS(=O)(=O)c2ccc(Cl)c(C(=O)O)n2)c2n[nH]c(=O)o2)c1C
9,440,Cc1ccc(F)c([C@@H](C)[C@H](NS(=O)(=O)c2ccc(Cl)cc2OCC(F)F)c2n[nH]c(=O)o2)c1C
10,170,CC(O)c1c(Cl)ccc(S(=O)(=O)N[C@H](c2n[nH]c(=O)o2)[C@H](C)c2cccc3c2CCC3)c1Cl (some centres undefined)
11,330,Cc1ccc(F)c([C@@H](C)[C@H](NS(=O)(=O)c2cccc3c2OCCO3)c2n[nH]c(=O)o2)c1C
12,660,Cc1ccc(F)c([C@@H](C)[C@H](NS(=O)(=O)c2ccc3[nH]nnc3c2)c2n[nH]c(=O)o2)c1C
13,40,Cc1ccc(F)c([C@@H](C)[C@H](NS(=O)(=O)c2ncc(Cl)cc2C(N)=O)c2n[nH]c(=O)o2)c1C
14,130,Cc1ccc(F)c([C@@H](C)[C@H](NS(=O)(=O)c2ccc(Cl)c(C(=O)N3CCC4(COC4)C3)n2)c2n[nH]c(=O)o2)c1C
15,550,C[C@H](c1cccc2c1CCC2)[C@H](NS(=O)(=O)c1ccc(F)c(C(C)(C)O)c1F)c1n[nH]c(=O)o1
16,350,Cc1ccc(F)c([C@@H](C)[C@H](NS(=O)(=O)c2ccc3c(c2)C(=O)CCC3)c2n[nH]c(=O)o2)c1C
17,640,C[C@H](c1cccc2c1CCC2)[C@H](NS(=O)(=O)c1ccc(Br)c(C(C)(C)O)c1)c1n[nH]c(=O)o1
18,830,Cc1ccc(F)c([C@@H](C)[C@H](NS(=O)(=O)c2ccc3[nH]c(=O)[nH]c3c2)c2n[nH]c(=O)o2)c1C
19,410,Cc1ccc(S(=O)(=O)N[C@H](c2n[nH]c(=O)o2)[C@H](C)c2c(F)ccc(C)c2C)cc1
20,270,Cc1ccc(F)c([C@@H](C)[C@H](NS(=O)(=O)c2c(F)cc(Cl)cc2C(=O)O)c2n[nH]c(=O)o2)c1C
21,500,Cc1ccc(F)c([C@@H](C)[C@H](NS(=O)(=O)c2ccc(Cl)cc2C(=O)N(C)C)c2n[nH]c(=O)o2)c1C
22,740,Cc1ccc(F)c([C@@H](C)[C@H](NS(=O)(=O)c2ccc3c(c2)CC(=O)N3)c2n[nH]c(=O)o2)c1C
23,380,Cc1ccc(F)c([C@@H](C)[C@H](NS(=O)(=O)c2ccc(Cl)cc2C(C)O)c2n[nH]c(=O)o2)c1C (some centres undefined)
24,160,Cc1ccc(F)c([C@@H](C)[C@H](NS(=O)(=O)c2ccc(F)c3c2OCCC3=O)c2n[nH]c(=O)o2)c1C
25,90,Cc1ccc(F)c([C@@H](C)[C@H](NS(=O)(=O)c2ccc(F)c(C(C)(C)O)c2F)c2n[nH]c(=O)o2)c1C

row,IC50 [nM],Compound
1,60,Cc1ccc(F)c([C@@H](C)[C@H](NS(=O)(=O)c2cc(C(C)(C)O)c(Cl)cc2C(N)=O)c2n[nH]c(=O)o2)c1C
2,80,CC(=O)OC1(C)CCOc2c(S(=O)(=O)N[C@H](c3n[nH]c(=O)o3)[C@H](C)c3c(F)ccc(Br)c3C)ccc(Cl)c21 (some centres undefined)
3,910,Cc1ccc(F)c([C@@H](C)[C@H](NS(=O)(=O)c2ccc(Cl)c3c2C(O)CCC3)c2n[nH]c(=O)o2)c1C (some centres undefined)
4,110,Cc1ccc(F)c([C@@H](C)[C@H](NS(=O)(=O)c2ccc(Cl)c3cccnc23)c2n[nH]c(=O)o2)c1C
5,820,Cc1ccc(F)c([C@@H](C)[C@H](NS(=O)(=O)c2ccc3[nH]c(=O)c(=O)[nH]c3c2)c2n[nH]c(=O)o2)c1C
6,200,COc1c(S(=O)(=O)N[C@H](c2n[nH]c(=O)o2)[C@H](C)c2c(F)ccc(C)c2C)ncc(Cl)c1C(C)O (some centres undefined)
7,130,Cc1ccc(F)c([C@@H](C)[C@H](NS(=O)(=O)c2ccc3c(c2)OCCO3)c2n[nH]c(=O)o2)c1C
8,210,CC(=O)OC(C)c1nc(S(=O)(=O)N[C@H](c2n[nH]c(=O)o2)[C@H](C)c2cccc3c2CCC3)ccc1Cl (some centres undefined)
9,120,Cc1ccc(F)c([C@@H](C)[C@H](NS(=O)(=O)c2cccc3c2OCCC3(O)C(F)(F)F)c2n[nH]c(=O)o2)c1C (some centres undefined)
10,90,Cc1c(Br)ccc(F)c1[C@@H](C)[C@H](NS(=O)(=O)c1ccc(Cl)c2c1OCCC2=O)c1n[nH]c(=O)o1
11,450,COC(=O)c1cc(Br)cnc1S(=O)(=O)N[C@H](c1n[nH]c(=O)o1)[C@H](C)c1c(F)ccc(C)c1C
12,280,Cc1ccc(F)c([C@@H](C)[C@H](NS(=O)(=O)c2ccc(Cl)c(-c3nnn[nH]3)c2)c2n[nH]c(=O)o2)c1C
13,110,COc1c(S(=O)(=O)N[C@H](c2n[nH]c(=O)o2)[C@H](C)c2c(F)ccc(C)c2C)ccc(Cl)c1C(C)(C)O
14,340,COC(=O)c1cc(Cl)cnc1S(=O)(=O)N[C@H](c1n[nH]c(=O)o1)[C@H](C)c1c(F)ccc(C)c1C
15,410,Cc1ccc(F)c([C@@H](C)[C@H](NS(=O)(=O)c2ccc(Cl)cc2C(=O)N2CCC2)c2n[nH]c(=O)o2)c1C
16,440,C[C@H](c1cccc2c1CCC2)[C@H](NS(=O)(=O)c1ccc(Cl)c(C(C)(C)O)n1)c1n[nH]c(=O)o1
17,250,CNC(=O)c1cc(Br)cnc1S(=O)(=O)N[C@H](c1n[nH]c(=O)o1)[C@H](C)c1c(F)ccc(C)c1C
18,180,COc1c(S(=O)(=O)N[C@H](c2n[nH]c(=O)o2)[C@H](C)c2cccc(C)c2C)ccc(Cl)c1C(C)O (some centres undefined)
19,150,CCc1ccc(F)c([C@@H](C)[C@H](NS(=O)(=O)c2ccc(Cl)c(C(C)O)c2OC)c2n[nH]c(=O)o2)c1C (some centres undefined)
20,100,CC(=O)NC1CCOc2c(S(=O)(=O)N[C@H](c3n[nH]c(=O)o3)[C@H](C)c3c(F)ccc(C)c3C)ccc(Cl)c21 (some centres undefined)
21,810,Cc1ccc(F)c([C@@H](C)[C@H](NS(=O)(=O)c2ccc(Cl)c(S(N)(=O)=O)c2)c2n[nH]c(=O)o2)c1C
22,790,Cc1ccc(F)c([C@@H](C)[C@H](NS(=O)(=O)c2cc3c(cc2C(=O)O)OCCO3)c2n[nH]c(=O)o2)c1C
23,270,CC(=O)c1cc(Cl)ccc1S(=O)(=O)N[C@H](c1n[nH]c(=O)o1)[C@H](C)c1c(F)ccc(C)c1C
24,170,COC(=O)c1c(F)ccc(S(=O)(=O)N[C@H](c2n[nH]c(=O)o2)[C@H](C)c2c(F)ccc(C)c2C)c1F
25,710,Cc1ccc(F)c([C@@H](C)[C@H](NS(=O)(=O)c2cccc3[nH]ccc23)c2n[nH]c(=O)o2)c1C

row,IC50 [nM],Compound
1,430,COc1c(S(=O)(=O)N[C@H](c2n[nH]c(=O)o2)[C@H](C)c2c(F)ccc(C)c2C)ncc(Cl)c1C(C)OC(C)=O (some centres undefined)
2,80,Cc1ccc(F)c([C@@H](C)[C@H](NS(=O)(=O)c2cc(C(C)(C)O)c(F)cc2C(N)=O)c2n[nH]c(=O)o2)c1C
3,80,COc1c(S(=O)(=O)N[C@H](c2n[nH]c(=O)o2)[C@H](C)c2c(F)ccc3ccccc23)ccc(Cl)c1C(C)O (some centres undefined)
4,450,Cc1ccc(F)c([C@@H](C)[C@H](NS(=O)(=O)c2ccc(Cl)s2)c2n[nH]c(=O)o2)c1C
5,500,Cc1ccc(F)c([C@@H](C)[C@H](NS(=O)(=O)c2ncc(Cl)cc2C(=O)O)c2n[nH]c(=O)o2)c1C
6,60,Cc1ccc(F)c([C@@H](C)[C@H](NS(=O)(=O)c2cc(C(C)(C)O)ccc2C(N)=O)c2n[nH]c(=O)o2)c1C
7,960,Cc1ccc(F)c([C@@H](C)[C@H](NS(=O)(=O)c2cc(F)c(Cl)cc2C(=O)O)c2n[nH]c(=O)o2)c1C
8,470,Cc1ccc(S(=O)(=O)N[C@H](c2n[nH]c(=O)o2)[C@H](C)c2c(F)ccc(C)c2C)cc1S(=O)(=O)N1CCCCC1
9,220,Cc1ccc(F)c([C@@H](C)[C@H](NS(=O)(=O)c2ccc3c(c2)N(C)CCC3)c2n[nH]c(=O)o2)c1C
10,180,Cc1ccc(F)c([C@@H](C)[C@H](NS(=O)(=O)c2ccc3c(c2)C(C)(O)CCO3)c2n[nH]c(=O)o2)c1C (some centres undefined)
11,100,COc1nc(Cl)ccc1S(=O)(=O)N[C@H](c1n[nH]c(=O)o1)[C@H](C)c1c(F)ccc(C)c1C
12,270,Cc1ccc(F)c([C@@H](C)[C@H](NS(=O)(=O)c2ccc(Cl)cc2C(=O)NCCO)c2n[nH]c(=O)o2)c1C
13,100,Cc1c(Cl)ccc(F)c1[C@@H](C)[C@H](NS(=O)(=O)c1ncc(Cl)cc1C(N)=O)c1n[nH]c(=O)o1
14,590,COc1cc(Br)ccc1S(=O)(=O)N[C@H](c1n[nH]c(=O)o1)[C@H](C)c1cccc2c1CCC2
15,80,Cc1ccc(F)c([C@@H](C)[C@H](NS(=O)(=O)c2ccc(Cl)c(C(=O)N3CCC4(CC3)COC4)n2)c2n[nH]c(=O)o2)c1C
16,20,Cc1ccc(F)c([C@@H](C)[C@H](NS(=O)(=O)c2ncc(Br)cc2C(N)=O)c2n[nH]c(=O)o2)c1C
17,230,Cc1ccc(F)c([C@@H](C)[C@H](NS(=O)(=O)c2c(F)cc(F)c3c2OCCC3O)c2n[nH]c(=O)o2)c1C (some centres undefined)
18,110,CC(=O)OC1(C(F)(F)F)CCOc2c(S(=O)(=O)N[C@H](c3n[nH]c(=O)o3)[C@H](C)c3c(F)ccc(C)c3C)ccc(Cl)c21 (some centres undefined)
19,180,Cc1ccc(F)c([C@@H](C)[C@H](NS(=O)(=O)c2ccc(Cl)cc2C(=O)O)c2n[nH]c(=O)o2)c1C
20,280,Cc1ccc(F)c([C@@H](C)[C@H](NS(=O)(=O)c2ccc3c(c2)C(=O)CCO3)c2n[nH]c(=O)o2)c1C
21,60,CNC(=O)c1nc(S(=O)(=O)N[C@H](c2n[nH]c(=O)o2)[C@H](C)c2c(F)ccc(C)c2C)ccc1Cl
22,170,COc1c(S(=O)(=O)N[C@H](c2n[nH]c(=O)o2)[C@H](C)c2c(F)ccc(C)c2C)ccc(Cl)c1C(C)OC(C)=O (some centres undefined)
23,190,Cc1ccc(F)c([C@@H](C)[C@H](NS(=O)(=O)c2ccc(F)c(S(C)(=O)=O)c2)c2n[nH]c(=O)o2)c1C
24,260,Cc1ccc(F)c([C@@H](C)[C@H](NS(=O)(=O)c2ccc(Cl)cc2OC(F)F)c2n[nH]c(=O)o2)c1C
